The results in this text go back to ChEMBL document CHEMBL3508693 (2016).

Data set [1] addresses CYP2C9 (Homo sapiens, UniProt P11712). In words: Inhibitory activity of 200 uM SPP100 on 222 Pmoles of cDNA-derived CYP2C9 enzyme in microsome prepared from human lymphoblastoid cell line. It is filed as ADME, microsomes. Also noted: conc 200 uM, interact cpd conc 6 uM. The following applies: probe diclofenac.
The target in data set [2] is CYP2C19 (Homo sapiens, UniProt P33261). In words: Inhibitory activity of 20 uM SPP100 on 1174 Pmoles of cDNA-derived CYP2C19 enzyme in microsome prepared from human lymphoblastoid cell line. As to conditions: probe (S)-mephenytoin. Also noted: conc 20 uM, interact cpd conc 50 uM. Type of data set: ADME, microsomes.
CYP2C19, sequence (P33261 whole entry): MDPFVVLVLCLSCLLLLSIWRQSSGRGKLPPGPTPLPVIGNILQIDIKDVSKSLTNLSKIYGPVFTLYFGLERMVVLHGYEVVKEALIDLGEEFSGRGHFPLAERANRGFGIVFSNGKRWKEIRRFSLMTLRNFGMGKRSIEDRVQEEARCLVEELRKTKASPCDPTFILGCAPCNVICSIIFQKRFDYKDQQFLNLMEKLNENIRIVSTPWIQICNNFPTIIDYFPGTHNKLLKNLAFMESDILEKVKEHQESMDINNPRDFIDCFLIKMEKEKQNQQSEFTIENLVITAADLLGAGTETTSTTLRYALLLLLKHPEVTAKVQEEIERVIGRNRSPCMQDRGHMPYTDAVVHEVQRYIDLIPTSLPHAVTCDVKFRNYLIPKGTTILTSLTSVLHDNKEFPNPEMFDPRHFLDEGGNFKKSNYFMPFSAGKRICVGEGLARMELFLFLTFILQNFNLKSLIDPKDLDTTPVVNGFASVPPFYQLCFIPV
The nature of data set [3]: % SPP100 (0-168h) recovered in urine following single intravenous dose of [14C] aliskiren hemifumarate at 1 mg.Kg-1 level in marmoset. Type of data set: ADME, organism-based, Callithrix jacchus. The following applies: in vivo.
The nature of data set [4]: Excretion of radioactivity (48-72h) in urine following single oral dose of 500 mg.Kg-1 [14C] aliskiren hemifumarate in mouse. It is filed as ADME, organism-based, TgRasH2. As to conditions: in vivo.
Data set [5] in a line: % of radioactivity (24h) recovered in urine following single intravenous administration of 10 mg.Kg-1 [14C] aliskiren hemifumarate in male rat. It is filed as ADME, organism-based, HAN:WIST(SPF). The following applies: in vivo.
The nature of data set [6]: Mean excretion of radioactivity (0-96h) in urine and faeces following single intravenous dose of 10 mg.Kg-1 [14C] aliskiren hemifumarate in rat. The following applies: in vivo. It is filed as ADME, organism-based, Albino HAN:WIST, Urine/Feces.
A short description of data set [7]: Concentration of radioactivity in the kidney medulla following repeated oral administration of [14C] aliskiren hemifumarate at 100 mg.Kg-1 level studied at 2h after 7th dose in rat. Type of data set: ADME, organism-based, Albino HAN:WIST, Renal medulla. The following applies: in vivo.
The nature of data set [8]: Concentration of radioactivity in the brown fat following repeated oral administration of [14C] aliskiren hemifumarate at 100 mg.Kg-1 level studied at 2h after 3rd dose in rat. It is filed as ADME, organism-based, Albino HAN:WIST, Brown adipose tissue. The following applies: in vivo.
Data set [9] can be described thus: Mean excretion of radioactivity (0-24h) in urine and faeces following single intravenous dose of 10 mg.Kg-1 [14C] aliskiren hemifumarate in mouse. It is filed as ADME, organism-based, TgRasH2, Urine/Feces. The following applies: in vivo.
Data set [10] is described as follows: % of radioactivity (24h) recovered in bile following single intravenous administration of 10 mg.Kg-1 [14C] aliskiren hemifumarate in male rat. It is filed as ADME, organism-based, HAN:WIST(SPF). The following applies: in vivo.
Data set [11] can be described thus: Excretion of radioactivity (0-72h) in faeces following single oral dose of 500 mg.Kg-1 [14C] aliskiren hemifumarate in mouse. It is filed as ADME, organism-based, TgRasH2, Feces. The following applies: in vivo.
The target of data set [12] is Cytochrome P450 3A5 (Homo sapiens, UniProt P20815). In words: Metabolic clearance (ul.min.nmol-1 CYP) of aliskiren hemifumarate for CYP3A5 was determined in human liver microsome incubated with [14C]SPP100 hemifumarate. Type of data set: ADME. As to conditions: microsomes. Background: Microsomes from liver hold many membrane-bound enzymes, among them those of drug oxidation.
Cytochrome P450 3A5, sequence (P20815 whole entry): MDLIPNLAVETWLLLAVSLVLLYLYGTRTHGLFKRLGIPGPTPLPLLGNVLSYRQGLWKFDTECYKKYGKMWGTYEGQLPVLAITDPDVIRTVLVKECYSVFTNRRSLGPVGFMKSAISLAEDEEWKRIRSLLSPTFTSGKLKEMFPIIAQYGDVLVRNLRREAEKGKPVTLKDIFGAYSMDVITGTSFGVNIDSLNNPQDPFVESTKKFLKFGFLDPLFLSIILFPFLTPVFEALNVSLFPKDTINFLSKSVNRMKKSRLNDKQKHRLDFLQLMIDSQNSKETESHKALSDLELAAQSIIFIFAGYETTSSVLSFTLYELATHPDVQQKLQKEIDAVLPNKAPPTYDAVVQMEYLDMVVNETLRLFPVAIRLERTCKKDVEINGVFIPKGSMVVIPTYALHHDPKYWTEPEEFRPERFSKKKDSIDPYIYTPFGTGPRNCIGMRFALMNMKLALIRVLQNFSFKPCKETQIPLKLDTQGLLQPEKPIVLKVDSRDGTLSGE

Data set [13] can be described thus: Plasma concentration of [14C] aliskiren hemifumarate in first 4h following single intravenous […] dose of [14C] aliskiren hemifumarate at 10 mg.Kg-1 level in mouse. Type of data set: ADME, organism-based, TgRasH2. The following applies: in vivo.
Data set [14] is described as follows: Mean excretion of radioactivity (0-72h) in urine and faeces following single oral dose of 500 mg.Kg-1 [14C] aliskiren hemifumarate in mouse. It is filed as ADME, organism-based, TgRasH2, Urine/Feces. The following applies: in vivo.
Data set [15] is described as follows: Excretion (0-168h) of 14C-radioactivity in urine following single oral dose of 300 mg [14C]SPP100 studied in healthy men. It is filed as ADME, organism-based. As to conditions: human, in vivo, at 300 mg.
Data set [16] is described as follows: AUC (0-96h) of unlabeled aliskiren hemifumarate following intravenous administration of aliskiren hemifumarate at 10 mg.Kg-1 level in rat. It is filed as ADME, organism-based. The following applies: Albino HAN:WIST, plasma.
A short description of data set [17]: Tmax of aliskiren hemifumarate following 2 week oral dosing of aliskiren hemifumarate at 10 mg.Kg-1 level studied on […] in male Callithrix jacchus. It is filed as ADME, organism-based. As to conditions: marmoset, plasma.
Data set [18] in a line: AUC (0-96h) of unlabeled aliskiren hemifumarate following oral administration of aliskiren hemifumarate at 100 mg.Kg-1 level in rat. Type of data set: ADME, organism-based. As to conditions: Albino HAN:WIST, plasma.
Data set [19] is described as follows: Cmin of aliskiren hemifumarate following repeated oral administration of [14C] aliskiren hemifumarate at 100 mg.Kg-1 level studied at steady state during a dosing interval in rat. As to conditions: in vivo. Type of data set: ADME, organism-based, Albino HAN:WIST.
The nature of data set [20]: AUC(0-24h) of aliskiren hemifumarate following 2 week oral dosing of aliskiren hemifumarate at 10 mg.Kg-1 level studied on day 14 in female Callithrix jacchus. The following applies: marmoset, plasma. It is filed as ADME, organism-based.
Data set [21] can be described thus: Cmaxspec of aliskiren hemifumarate following 2 week oral dosing of aliskiren hemifumarate at 50 mg.Kg-1 level studied on day 14 in male Callithrix jacchus. It is filed as ADME, organism-based, Plasma. The following applies: marmoset, in vivo, 336 h.
The nature of data set [22]: AUC (0-24h)/dose of aliskiren hemifumarate following 4 week oral dietary dosing of aliskiren hemifumarate at 500 mg.Kg-1 level in male mouse. It is filed as ADME, organism-based, CB6F1-TGrasH2, Plasma. As to conditions: in vivo.
A short description of data set [23]: Cmax of aliskiren hemifumarate following single dosing of SPP100B oral solution at 160 mg level studied on day 1 in men. It is filed as ADME, organism-based. As to conditions: male, human, plasma.
Data set [24] can be described thus: Cmax/dose of aliskiren hemifumarate following 4 week oral dietary dosing of aliskiren hemifumarate at 1000 mg.Kg-1 level in female mouse. Type of data set: ADME, organism-based, CB6F1-TGrasH2. As to conditions: in vivo, 672 h.
Data set [25] in a line: AUC (0-24h) of aliskiren hemifumarate following 4 week oral dietary dosing of aliskiren hemifumarate at 500 mg.Kg-1 level in male mouse. The following applies: CB6F1-TGrasH2, mouse, plasma. Type of data set: ADME, organism-based.
Data set [26] can be described thus: Tmax (0-96h) of unlabeled aliskiren hemifumarate following intravenous administration of aliskiren hemifumarate at 10 mg.Kg-1 level in rat. Type of data set: ADME, organism-based. The following applies: Albino HAN:WIST, plasma.
A short description of data set [27]: Cmax/dose (0-96h) of unlabeled aliskiren hemifumarate following oral administration of aliskiren hemifumarate at 100 mg.Kg-1 level in rat. Type of data set: ADME, organism-based, Albino HAN:WIST, Plasma. The following applies: in vivo.
The nature of data set [28]: AUC (0-24h)/dose of aliskiren hemifumarate following 4 week oral dietary dosing of aliskiren hemifumarate at 500 mg.Kg-1 level in female mouse. It is filed as ADME, organism-based, CB6F1-TGrasH2, Plasma. The following applies: in vivo.
Data set [29] in a line: Tmax of aliskiren hemifumarate following 2 week oral dosing of aliskiren hemifumarate at 50 mg.Kg-1 level studied on day 1 in female Callithrix jacchus. The following applies: marmoset, plasma. Type of data set: ADME, organism-based.
Data set [30] in a line: Cmax of aliskiren hemifumarate following 4 week oral dietary dosing of aliskiren hemifumarate at 1000 mg.Kg-1 level in male mouse. It is filed as ADME, organism-based. As to conditions: CB6F1-TGrasH2, mouse, in vivo.
Data set [31] can be described thus: t1/2 of aliskiren hemifumarate following 2 week oral dosing of aliskiren hemifumarate at 10 mg.Kg-1 level studied on […] in male Callithrix jacchus. Type of data set: ADME, organism-based. As to conditions: marmoset, plasma.
A short description of data set [32]: AUC(0-24h) of aliskiren hemifumarate following 2 week oral dosing of aliskiren hemifumarate at 10 mg.Kg-1 level studied on […] in male Callithrix jacchus. It is filed as ADME, organism-based. The following applies: marmoset, plasma.
Data set [33] is described as follows: Cmax of aliskiren hemifumarate following 8 day once-daily dosing of SPP100B oral solution at 640 mg level studied on day 8 in men. Type of data set: ADME, organism-based. The following applies: male, human, plasma.
The nature of data set [34]: Cmax of unlabeled aliskiren hemifumarate following single intravenous dose of aliskiren hemifumarate at 10 mg.Kg-1 level in mouse. As to conditions: TgRasH2, mouse, plasma. Type of data set: ADME, organism-based.
A short description of data set [35]: Cmax/dose of aliskiren hemifumarate following 4 week oral dietary dosing of aliskiren hemifumarate at 500 mg.Kg-1 level in female mouse. Type of data set: ADME, organism-based, CB6F1-TGrasH2. The following applies: in vivo, 672 h.
A short description of data set [36]: AUC (0-24h)/dose of aliskiren hemifumarate following 4 week oral dietary dosing of aliskiren hemifumarate at 1500 mg.Kg-1 level in male mouse. Type of data set: ADME, organism-based, CB6F1-TGrasH2, Plasma. As to conditions: in vivo.
A short description of data set [37]: Cmax of unlabeled aliskiren hemifumarate following single oral dose of aliskiren hemifumarate at 500 mg.Kg-1 level in mouse. It is filed as ADME, organism-based. The following applies: TgRasH2, mouse, plasma.
The nature of data set [38]: AUC of aliskiren hemifumarate following 8 day once-daily dosing of SPP100B oral solution at 40 mg level studied on day 8 in men. It is filed as ADME, organism-based. The following applies: male, human, plasma.
The nature of data set [39]: Cmax of aliskiren hemifumarate following 4 week oral dietary dosing of aliskiren hemifumarate at 1000 mg.Kg-1 level in female mouse. Type of data set: ADME, organism-based. As to conditions: CB6F1-TGrasH2, mouse, in vivo.

CYP2C9, sequence (P11712 whole entry): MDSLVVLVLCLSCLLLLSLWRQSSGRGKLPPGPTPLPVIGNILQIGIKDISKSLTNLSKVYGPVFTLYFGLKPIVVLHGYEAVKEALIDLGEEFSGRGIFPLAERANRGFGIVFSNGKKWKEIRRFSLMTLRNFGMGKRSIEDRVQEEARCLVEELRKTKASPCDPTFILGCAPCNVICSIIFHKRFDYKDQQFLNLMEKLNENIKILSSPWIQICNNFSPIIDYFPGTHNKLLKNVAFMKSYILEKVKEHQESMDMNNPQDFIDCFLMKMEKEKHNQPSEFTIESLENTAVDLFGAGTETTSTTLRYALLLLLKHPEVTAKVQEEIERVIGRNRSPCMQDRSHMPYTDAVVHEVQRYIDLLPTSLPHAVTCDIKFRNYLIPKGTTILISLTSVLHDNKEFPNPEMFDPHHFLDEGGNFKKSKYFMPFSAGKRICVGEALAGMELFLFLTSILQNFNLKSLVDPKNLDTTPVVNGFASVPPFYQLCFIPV

Turning to `COCCCOc1cc(C[C@@H](C[C@H](N)[C@@H](O)C[C@H](C(=O)NCC(C)(C)C(N)=O)C(C)C)C(C)C)ccc1OC`, in [1], the inhibition (as a rule, the relative decrease from the control value, in per cent) at 200 µM amounted to 14.9%. The inhibition at 20 µM in [2] was -1.5%. Further, the Compound recovery in [3] was found to be 3%.
On to `COCCCOc1cc(C[C@@H](C[C@H](N)[C@@H](O)C[C@H](C(=O)NCC([14CH3])([14CH3])C(N)=O)C(C)C)C(C)C)ccc1OC.O=C(O)/C=C/C(=O)O`, for which the Radiolabel recovery in data set [4] is reported as 0.34%; in [5], 6.2%; in data set [6], 94.8%; in data set [7] it was “OUTCOME = Detected”; in data set [8], “OUTCOME = Detected”; in data set [9] it was 84.68%. In addition, the Radiolabel recovery amounted to 70% in data set [10], 1.98% in [11], 89.8% in data set [14] and 0.6% in [15]. In [12], this compound registered a CL of 47 µL·min/nmol. Moreover, the Compound recovery in data set [13] amounted to 94%.
As for `COCCCOc1cc(C[C@@H](C[C@H](N)[C@@H](O)C[C@H](C(=O)NCC(C)(C)C(N)=O)C(C)C)C(C)C)ccc1OC.COCCCOc1cc(C[C@@H](C[C@H](N)[C@@H](O)C[C@H](C(=O)NCC(C)(C)C(N)=O)C(C)C)C(C)C)ccc1OC.O=C(O)/C=C/C(=O)O` [ALISKIREN FUMARATE], the AUC(0-t) (as a rule, the area under the concentration-time curve up to a stated or last time point) at 96 h stood at 12.6 µM·h in data set [16] and 3.01 µM·h in data set [18]. Moreover, the values for the Tmax in [17], in data set [26] and in data set [29] were 2 h, 4.98 min and 1 h, respectively. Also, the “Cmin(ss)” value in [19] came to 4.54 nM. The exposure (AUC) (as a rule, the area under the concentration-time curve, a measure of exposure) at 24 h in data set [20] was 29000 ng·h/mL; in data set [32] it was 33900 ng·h/mL. Further, the Cmax normalised in data set [21] is 0.246 (ug/ml)/(mg/kg); in data set [24] it was 0.167 (ng/mL)/(mg/kg/day); in [27], 0.0027 (umol/L)/(mg/kg); in [35] it was 0.128 (ng/mL)/(mg/kg/day). For the same compound, the AUC normalised in data set [22] is 3.41 ((ng/mL).hours)/(mg/kg/day); in [28], 1.71 ((ng/mL).hours)/(mg/kg/day); in data set [36], 2.76 ((ng/mL).hours)/(mg/kg/day). Also, the Cmax – broadly, the maximum level reached in the sampled fluid or tissue – in [23] came out at 21.5 ng/mL; in data set [30], 879 ng/mL; in data set [33] it was 335 ng/mL; in data set [34] it was 19800 nM; in data set [37] it was 1450 nM; in data set [39], 167 ng/mL. Moreover, the AUC(0-t) at 24 h in data set [25] is 1700 ng·h/mL. Also, in data set [31], the half-life (usually the time needed for the level to fall by half in the phase considered) was 5.63 h. This compound also came in with an AUC at 192 h in data set [38] of 46.7 ng·h/mL.
